Tests used:
Format in all cases: in vivo, BALB/c mice
[1] = Blood pharmacokinetics of Cu(II)-GSSG complex and GS-CuNPs; conditions: 24 h p.i.
Method: (§1) FIGS. 2A to 2E show (A) Ex vivo fluorescent images of urine of control mice or mice injected with luminescent GS-CuNPs (λex=510 nm, λem=790 nm); (B) Copper contents (n=6) in the urine at different times post injection (p.i.); (C) Biodistribution of Cu(II)-GSSG complex and luminescent GS-CuNPs in BALB/c mice (n=6) 24 h after the tail-vein injection; (D) Liver-tourine ratios of Cu(II)-GSSG complex and GS-CuNPs at 24 h p.i; (E) Pharmacokinetics (n=3) of the renal clearable Cu(II)-GSSG complex and luminescent GS-CuNPs in 24 h p.i.
(§2) The detailed biodistribution studies of mice injected with GS-CuNPs and Cu(II)-GSSG complexes were consistent with their renal clearance profiles (FIG. 2C). In view of the background of copper, the average copper contents in the various organs/tissues and urine from three BALB/c mice have been deducted. […] However, compared to free Cu ions that often bind to caeruloplasmin and hephaestin and mainly accumulate in the liver, both GS-CuNPs and Cu(II)-GSSG complexes had much lower accumulation in RES, which was because GSH minimized the serum protein absorption and render them the efficient renal clearance. […] As a result, liver-to-urine ratio (−0.16) of CuNPs is more than 4 times lower than that of Cu(II)-GSSG complex (FIG. 2D).

[2] = Biodistribution of Cu(II)-GSSG complex and GS-CuNPs after tail-vein injection; conditions: 24 h after tail-vein injection, background copper deducted
Method: as §1, §2

[3] = Renal clearance kinetics (copper content in urine) of GS-CuNPs and Cu(II)-GSSG complex
Method: as §1
Although “being small” is generally seen as an efficient approach to boost the clearance of biomaterials from the body, the avidity between materials and serum proteins also plays an important role in the excretion. Seemingly a dilemma, it is hard to know which factors in the renal excretion of GS-CuNPs and Cu(II)-GSSG complex are reliably important. As such, the renal clearance kinetics and biodistribution of GS-CuNPs and Cu(II)-GSSG complex were evaluated in BALB/c mice (FIGS. 2A and 2B). For GS-CuNPs, 78.5±3.5% of injected copper was excreted from the body into the urine after 24 h p.i., and over 60% of copper was actually eliminated from the body in the first 2 h p.i (FIG. 2B).

Substance: Cu(II)-GSSG complex
- distribution half-life t½α [1]: 0.228 ± 0.0167 h
- terminal elimination half-life (t½β) [1]: 4.93 ± 0.94 h
- copper found in the liver [2]: 29.6±8.1 % ID
- copper found in the spleen [2]: ~0.1 % ID
- additional increase in urine excretion of copper metal ([3]; after 2 h): −18%
- copper found in the urine ([3]; at 2 h p.i.): 22 % ID

— patent publication US20140099256A1, “RADIOACTIVE LUMINESCENT NANOPARTICLE COMPOSITIONS” (The Board of Regents of the University of Texas System, priority 2012, published 2014)
